Results on four compounds are retold here after patent US5698411A, “Method for determining activity of enzymes in metabolically active whole cells” (priority 1995, dated 1997).

Holding throughout (assay type): cell-based, human
Experiment [1] concerns lymphocytes. The experiment can be described thus: aberrant enzyme activities in febrile children, lymphocytes (Table 7).
Experiment [2] has as its system monocytes. The experiment can be described thus: aberrant enzyme activities in febrile children, monocytes (Table 7).
Experiment [3] concerns granulocytes. The experiment can be described thus: aberrant enzyme activities in febrile children, granulocytes (Table 7).
The mark [4] stands for this setting: P88 Enteritis, listed as Z-Gly/Pro.

For `C[C@H](NC(=O)OCc1ccccc1)C(=O)NCC(=O)Nc1ccc2c(c1)Oc1cc(NC(=O)CNC(=O)[C@H](C)NC(=O)OCc3ccccc3)ccc1C21OC(=O)c2ccccc21` [Z-AG, (Z-Ala--Gly)2 Rho 110], the “aberrant enzyme activity, LYMPHS” value in experiment [1] (P99 Viral Syndrome), in experiment [1] (P102 UTI) and in experiment [1] (P103 Viral Syndrome) was “.smallcircle” in each case. Moreover, the “aberrant enzyme activity, MONOS” value in experiment [2] (P89 Viral Stomatitis), in experiment [2] (P95 Viral Syndrome), in experiment [2] (P96 Viral Syndrome), in experiment [2] (P97 Pyelonephritis), in experiment [2] (P99 Viral Syndrome) and in experiment [2] (P102 UTI) was “.smallcircle” throughout. Further, in experiment [2] (P103 Viral Syndrome), the “aberrant enzyme activity, MONOS” value is given as “.smallcircle”. For the same compound, the “aberrant enzyme activity, GRANS” value in experiment [3] (P89 Viral Stomatitis), in experiment [3] (P92 Adenitis), in experiment [3] (P95 Viral Syndrome), in experiment [3] (P96 Viral Syndrome), in experiment [3] (P97 Pyelonephritis) and in experiment [3] (P99 Viral Syndrome) was “.smallcircle” throughout. Moreover, the “aberrant enzyme activity, GRANS” value in experiment [3] (P102 UTI) and in experiment [3] (P103 Viral Syndrome) was “.smallcircle” throughout.
`O=C(NCC(=O)N1CCC[C@H]1C(=O)Nc1ccc2c(c1)Oc1cc(NC(=O)[C@@H]3CCCN3C(=O)CNC(=O)OCc3ccccc3)ccc1C21OC(=O)c2ccccc21)OCc1ccccc1` [Z-GP, (carbobenzyloxycarbonyl-Gly-Pro)2 Rho 110]: the “aberrant enzyme activity, LYMPHS” value is “.smallcircle” in experiment [1] (setting [4]); “- (>0.25 Decrease over normal range)” in experiment [1] (P89 Viral Stomatitis); “- (>0.25 Decrease over normal range)” in experiment [1] (P92 Adenitis); “- (>0.25 Decrease over normal range)” in experiment [1] (P95 Viral Syndrome); “- (>0.25 Decrease over normal range)” in experiment [1] (P96 Viral Syndrome); “.smallcircle” in experiment [1] (P97 Pyelonephritis, listed as Z-Gly/Pro). In addition, the “aberrant enzyme activity, LYMPHS” value in experiment [1] (P101 Fever -- Unknown Origin) and in experiment [1] (P103 Viral Syndrome) was “- (>0.25 Decrease over normal range)” each time. Moreover, the “aberrant enzyme activity, MONOS” value is on record as “.smallcircle” in experiment [2] (setting [4]); “.smallcircle” in experiment [2] (P89 Viral Stomatitis); “- (>0.25 Decrease over normal range)” in experiment [2] (P92 Adenitis); “.smallcircle” in experiment [2] (P95 Viral Syndrome); “.smallcircle” in experiment [2] (P96 Viral Syndrome); “.smallcircle” in experiment [2] (P97 Pyelonephritis). Also, the “aberrant enzyme activity, MONOS” value is “.smallcircle” in experiment [2] (P99 Viral Syndrome), “- (>0.25 Decrease over normal range)” in experiment [2] (P101 Fever -- Unknown Origin), “.smallcircle” in experiment [2] (P102 UTI) and “.smallcircle” in experiment [2] (P103 Viral Syndrome). Moreover, the “aberrant enzyme activity, GRANS” value is “.smallcircle” in experiment [3] (setting [4]); “- (>0.25 Decrease over normal range)” in experiment [3] (P92 Adenitis); “- (>0.25 Decrease over normal range)” in experiment [3] (P95 Viral Syndrome); “.smallcircle” in experiment [3] (P96 Viral Syndrome); “.smallcircle” in experiment [3] (P97 Pyelonephritis); “.smallcircle” in experiment [3] (P99 Viral Syndrome). Moreover, the “aberrant enzyme activity, GRANS” value in experiment [3] (P103 Viral Syndrome) is “.smallcircle”.
Turning to `C[C@@H](O)[C@H](NC(=O)OCc1ccccc1)C(=O)N1CCC[C@H]1C(=O)Nc1ccc2c(c1)Oc1cc(NC(=O)[C@@H]3CCCN3C(=O)[C@@H](NC(=O)OCc3ccccc3)[C@@H](C)O)ccc1C21OC(=O)c2ccccc21` [Z-TP6.5, (carbobenzyloxycarbonyl-Thr-Pro)2 Rho 110 (pH 6.5)], the “aberrant enzyme activity, LYMPHS” value in experiment [1] (P88 Enteritis) was “- (>0.25 Decrease over normal range)”; in experiment [1] (P89 Viral Stomatitis) it was “- (>0.25 Decrease over normal range)”; in experiment [1] (P92 Adenitis), “- (>0.25 Decrease over normal range)”; in experiment [1] (P97 Pyelonephritis) it was “.smallcircle”; in experiment [1] (P103 Viral Syndrome), “.smallcircle”. Besides, the “aberrant enzyme activity, MONOS” value is reported as “- (>0.25 Decrease over normal range)” in experiment [2] (P88 Enteritis); “- (>0.25 Decrease over normal range)” in experiment [2] (P89 Viral Stomatitis); “- (>0.25 Decrease over normal range)” in experiment [2] (P92 Adenitis); “.smallcircle” in experiment [2] (P97 Pyelonephritis); “.smallcircle” in experiment [2] (P103 Viral Syndrome). Besides, the “aberrant enzyme activity, GRANS” value is “- (>0.25 Decrease over normal range)” in experiment [3] (P88 Enteritis), “- (>0.25 Decrease over normal range)” in experiment [3] (P89 Viral Stomatitis), “- (>0.25 Decrease over normal range)” in experiment [3] (P92 Adenitis) and “.smallcircle” in experiment [3] (P103 Viral Syndrome).
“dichlorofluorescein [reference compound]”: the “aberrant enzyme activity, LYMPHS” value in experiment [1] (P88 Enteritis) is “.smallcircle”; in experiment [1] (P89 Viral Stomatitis), “+ (>0.25 Increase over normal range)”; in experiment [1] (P92 Adenitis), “+ (>0.25 Increase over normal range)”; in experiment [1] (P95 Viral Syndrome), “+ (>0.25 Increase over normal range)”; in experiment [1] (P96 Viral Syndrome), “+ (>0.25 Increase over normal range)”; in experiment [1] (P97 Pyelonephritis), “+ (>0.25 Increase over normal range)”. In addition, the “aberrant enzyme activity, LYMPHS” value is “.smallcircle” in experiment [1] (P99 Viral Syndrome), “+ (>0.25 Increase over normal range)” in experiment [1] (P101 Fever -- Unknown Origin), “.smallcircle” in experiment [1] (P102 UTI) and “+ (>0.25 Increase over normal range)” in experiment [1] (P103 Viral Syndrome). Further, the “aberrant enzyme activity, MONOS” value is recorded as “.smallcircle” in experiment [2] (P88 Enteritis); “+ (>0.25 Increase over normal range)” in experiment [2] (P89 Viral Stomatitis); “+ (>0.25 Increase over normal range)” in experiment [2] (P92 Adenitis); “+ (>0.25 Increase over normal range)” in experiment [2] (P95 Viral Syndrome); “+ (>0.25 Increase over normal range)” in experiment [2] (P96 Viral Syndrome); “+ (>0.25 Increase over normal range)” in experiment [2] (P97 Pyelonephritis). For the same compound, the “aberrant enzyme activity, MONOS” value in experiment [2] (P99 Viral Syndrome) is reported as “.smallcircle”; in experiment [2] (P101 Fever -- Unknown Origin), “+ (>0.25 Increase over normal range)”; in experiment [2] (P102 UTI), “.smallcircle”; in experiment [2] (P103 Viral Syndrome), “+ (>0.25 Increase over normal range)”. Moreover, the “aberrant enzyme activity, GRANS” value in experiment [3] (P88 Enteritis) is on record as “.smallcircle”; in experiment [3] (P89 Viral Stomatitis), “+ (>0.25 Increase over normal range)”; in experiment [3] (P92 Adenitis), “+ (>0.25 Increase over normal range)”; in experiment [3] (P95 Viral Syndrome), “+ (>0.25 Increase over normal range)”; in experiment [3] (P96 Viral Syndrome), “+ (>0.25 Increase over normal range)”; in experiment [3] (P97 Pyelonephritis), “+ (>0.25 Increase over normal range)”. Besides, the “aberrant enzyme activity, GRANS” value in experiment [3] (P99 Viral Syndrome) is on record as “.smallcircle”; in experiment [3] (P101 Fever -- Unknown Origin), “+ (>0.25 Increase over normal range)”; in experiment [3] (P102 UTI), “.smallcircle”; in experiment [3] (P103 Viral Syndrome), “+ (>0.25 Increase over normal range)”.
